According to patent publication US10137212B2, “Tetrahydroxamate chelators of zirconium89 and niobium90 for use in diagnostic applications” (priority 2013, dated 2018):

Tests used:
Type in all cases: physicochemical
[1] = in vitro stability of ^89Zr complexes in 0.1 M sodium phosphate buffer pH 6.5; conditions: 0.1 M sodium phosphate buffer pH 6.5, 10% DMSO, 37° C.
Experimental: (§1) 10 μL of each ^89Zr complex solution prepared as described above in Example 14 were incubated for 7 days in 40 μL Phosphate-Buffered Saline (PBS) (pH 7.4-10% DMSO) at 20° C., 40 μL sodium phosphate buffer (0.1 M, pH 6.5-10% DMSO) at 37° C., 40 μL human serum at 37° C., or 40 μL 50 mM EDTA (pH 7, 10% DMSO) at 37° C., respectively, and analyzed using the chromatographic system described in the above section after 1 h, 3 h, 1, 2, 3, 4, 5, 6, and 7 days.

[2] = complexation of ligands with ^89Zr, yield by ITLC-SG; conditions: 7.5 nmol ligand, pH 7
Experimental: All solutions described below were prepared with de-ionized water purified through a Chelex column prior to use. Stock solutions of ^89Zr at pH 7 were prepared as follow: to 450 μL of the ^89Zr solution in oxalic acid were added 450 μL of a 1M Na2CO3 solution and the pH was adjusted to 7 by addition of small aliquots of a 0.1 M Na2CO3 or 0.1 M HCl. 450 μL of water containing 3% bovine serum albumin were then added. To 45 μL of stock solution (˜1.3 MBq of ^89Zr in a typical experiment) were added 7.5 nmol (5 μL) of L5, L6, L7, C5, C6, or C7 in DMSO or the natural siderophore desferrioxamine B (DFB) mesylate in de-ionized water. These solutions were incubated at desired temperatures and time of reaction and analyzed by ITLC-SG using a 50 mM EDTA (ethylenediaminetetraacetic acid) solution adjusted to pH=7 in de-ionized water as eluant, and analyzed with a Typhoon 8600 scanner (GE Healthcare) in phosphorimaging mode. The percentage of the activity bound to the ligand after TLC was calculated by converting the TLC scan into a chromatogram and integrating the peak corresponding to the spot at the bottom of the TLC. Activity ratios were averaged out of a minimum of 2 TLCs for each condition. The influence of time and temperature on the complexation yield of ^89Zr by L5, L6, L7, C5, C6 and C7 and DFB is shown in Table 1. […]

[3] = in vitro stability of ^89Zr complexes in 50 mM EDTA (challenge); conditions: pH 7, 37° C.; for ^89Zr remaining complexed after a week: 7 days (n=4), FIG. 13
Experimental: FIG. 13 is a graph illustrating the stability of the ^89Zr-complexes in 50 mM EDTA at pH 7 and 37° C. over 7 days (n=4).
as §1

Row | Compound | Fraction of intact complex ([1]; 1 Day) [%] | Fraction of intact complex ([1]; 4 Days) [%] | Fraction of intact complex ([1]; 7 Days) [%] | complexation yield of ^89Zr ([2]; 20° C., 30 min) [%] | complexation yield of ^89Zr ([2]; 20° C., 120 min) [%] | complexation yield of ^89Zr ([2]; 50° C., 30 min) [%] | complexation yield of ^89Zr ([2]; 80° C. (time not given)) [%] | time of release of ~50% of ^89Zr [3] | ^89Zr remaining complexed after a week [3]
1 | CC(=O)N(O)CCCCCNC(=O)CCC(=O)N(O)CCCCCNC(=O)CCC(=O)N(O)CCCCCN [DFB, desferrioxamine B, reference compound] | 99 | 98 | 98 | >99 | >99 | >99 | >99 |  | 
2 | O=C1CCCCCN(O)C(=O)CCCCCN(O)C(=O)CCCCCN(O)C(=O)CCCCCN1O [Ligand C5] | 69 | 46 | 42 | 17 | 22 | 23 | 29 | within the first minutes | nearly none
3 | O=C1CCCCCCN(O)C(=O)CCCCCCN(O)C(=O)CCCCCCN(O)C(=O)CCCCCCN1O [Ligand C6] | 89 | 79 | 61 | 77 | 79 | 92 | 92 | a single day | 32±4%
4 | O=C1CCCCCCCN(O)C(=O)CCCCCCCN(O)C(=O)CCCCCCCN(O)C(=O)CCCCCCCN1O [Ligand C7] | >99 | 99 | 99 | 92 | >99 | >99 | >99 |  | 87±3%
5 | CCCCC(=O)N(O)CCCCCC(=O)N(O)CCCCCC(=O)N(O)CCCCCC(=O)N(O)CCC [Ligand L5] | 93 | 89 | 77 | 60 | 71 | 73 | 87.3 |  | 
6 | CCCCCC(=O)N(O)CCCCCCC(=O)N(O)CCCCCCC(=O)N(O)CCCCCCC(=O)N(O)CCC [Ligand L6] | 97 | 94 | 94 | 82 | 95 | 96 | >99 |  | 
7 | CCCCCCC(=O)N(O)CCCCCCCC(=O)N(O)CCCCCCCC(=O)N(O)CCCCCCCC(=O)N(O)CCC [Ligand L7] | 99 | 98 | 98 | 88 | >99 | >99 | >99 |  | 
